Consider 3 molecules from patent US5198424A, “Functionally active selectin-derived peptides” (Board of Regents of the University of Oklahoma, priority 1992, dated 1993).

Ends that are not written are not given here.

Experiment [1] addresses T1, GMP-140 (Homo sapiens, UniProt P16109).
T1 sequence (P16109 42-830): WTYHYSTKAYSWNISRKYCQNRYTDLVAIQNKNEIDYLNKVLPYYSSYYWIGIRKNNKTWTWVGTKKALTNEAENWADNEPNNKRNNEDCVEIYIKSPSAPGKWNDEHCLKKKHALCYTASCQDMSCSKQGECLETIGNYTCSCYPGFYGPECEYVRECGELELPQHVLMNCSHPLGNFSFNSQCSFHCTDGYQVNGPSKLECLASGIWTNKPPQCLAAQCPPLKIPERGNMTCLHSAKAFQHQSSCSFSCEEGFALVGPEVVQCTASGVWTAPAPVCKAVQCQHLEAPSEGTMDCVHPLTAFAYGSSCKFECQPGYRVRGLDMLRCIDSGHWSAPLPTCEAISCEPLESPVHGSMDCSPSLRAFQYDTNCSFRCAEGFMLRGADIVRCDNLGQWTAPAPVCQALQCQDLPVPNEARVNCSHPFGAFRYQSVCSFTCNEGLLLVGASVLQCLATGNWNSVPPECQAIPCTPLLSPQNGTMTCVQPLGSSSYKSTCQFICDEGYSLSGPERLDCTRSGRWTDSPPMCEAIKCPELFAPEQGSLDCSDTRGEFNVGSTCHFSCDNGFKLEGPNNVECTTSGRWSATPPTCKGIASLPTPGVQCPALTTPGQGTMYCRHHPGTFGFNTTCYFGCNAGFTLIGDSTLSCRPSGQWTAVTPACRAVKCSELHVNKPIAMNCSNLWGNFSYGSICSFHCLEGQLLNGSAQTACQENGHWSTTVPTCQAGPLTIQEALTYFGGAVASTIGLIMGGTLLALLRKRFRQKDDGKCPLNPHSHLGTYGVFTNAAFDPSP
The experiment in a line: Neutrophil adhesion to purified GMP-140 immobilized on plastic wells (myeloperoxidase readout). Type of experiment: cell-based. Details: from tissue; host or cells: outdated human platelet packs (platelet lysate). The text has this: Peptides were screened for their ability to inhibit neutrophil adhesion to purified GMP-140 immobilized on plastic wells, using the assay described by Geng, et al., Nature 343, 757-760 (1990).
Human neutrophils are isolated from heparinized whole blood by density gradient centrifugation on Mono-Poly resolving media, Flow Laboratories. Neutrophil suspensions are greater than 98% pure and greater than 95% viable by trypan blue exclusion. For adhesion assays, neutrophils are suspended at a concentration of 2×10^6 cells/ml in Hanks' balanced salt solution containing 1.26 mM Ca^2+ and 0.81 mM Mg^2+ (HBSS, Gibco) with 5 mg/ml human serum albumin (HBSS/HSA). Adhesion assays are conducted in triplicate in 96-well microtiter plates, Corning, incubated at 4° C. overnight with 50 microliters of various protein solutions.
GMP-140 is plated at 5 micrograms/ml and the control proteins: human serum albumin (Alb), platelet glycoprotein IIb/IIIa (IIb), von Willebrand factor (vWF), fibrinogen (FIB), thrombomodulin (TM), gelatin (GEL) or human serum (HS), are added at 50 micrograms/ml. All wells are blocked for 2 h at 22° C. with 300 microliters HBSS containing 10 mg/ml HSA, then washed three times with HBSS containing 0.1% Tween-20 and once with HBSS. Cells (2×10^5 per well were added to the wells and incubated at 22° C. for 20 min. The wells were then filled with HBSS/HSA, sealed with acetate tape (Dynatech), and centrifuged inverted at 150 g for 5 min. After discarding nonadherent cells and supernates, the contents of each well are solubilized with 200 microliters 0.5% hexadecyltrimethylammonium bromide, Sigma, in 50 mM potassium phosphate, pH 6.0, and assayed for myeloperoxidase activity, Ley, et al., Blood 73, 1324-1330 (1989). The number of cells bound was derived from a standard curve of myeloperoxidase activity versus numbers of cells. Under all assay conditions, the cells released less than 5% of total myeloperoxidase and lactate dehydrogenase. Results are presented in Table I. 100% adhesion is that seen in the presence of the C-terminal peptide (amino acid residues 761-777 of GMP-140) as a negative control; this value is the same as controls in which neither peptide nor antibody is added to the cells. Inhibition is read as a lower percent adhesion, so that a value of 5% mean that 95% of the specific adhesion was inhibited.
Peptides from the lectin-like domain of GMP-140 were assayed for their ability to inhibit adhesion of neutrophils to immobilized GMP-140 in the assay described in example 1. Concentrations tested ranged from 0.1 mM to 1.5 mM.

Experiment [2] concerns the target T1, GMP-140. The experiment in a line: ELISA of binding of biotinylated monoclonal antibodies G1, G2, G3 to immobilized GMP-140 with soluble peptide. As to conditions: peptide 1.5 mM. Details: from tissue; host or cells: outdated human platelet packs (platelet lysate). The method, then:
Based on competitive ELISAs with the purified protein, G1, G2, and G3 each recognize distinct or only partially overlapping epitopes. 1.5 mM peptide was added to biotinylated mAb at a concentration of 2.5 micrograms/ml, which were then added to the wells containing GMP-140, as described in example 1. Binding was measured by an ELISA with an avidin detection system.
The monoclonal antibodies were biotinylated as follows: to 0.5 ml of purified IgG antibody (1 mg/ml in PBS, pH 7.4) was added 50 μl of 3.2 mM N-hydroxysuccinimide biotin in dimethyl sulfoxide and 50 μl of 1 M NaHCO3. After a 2 hour incubation at room temperature in the dark, the reaction was stopped with 50 μl of 1 M NH4 Cl. The biotinylated antibody was then separated from other components by gel filtration on a PD-10 column equilibrated in PBS. The ELISA was performed as follows; all steps were performed at room temperature.
Biotinylated antibody (2.5 μg/ml) with or without 1.5 mM peptide was incubated with wells coated with GMP-140 as described in example 1. After a 2 hour incubation, the antibody was removed, the wells were washed, and 0.1 ml of horseradish peroxidase-conjugated stepavidin (Pierce), diluted 1:1000 in HBSS/HSA, was added for 30 min. The wells were then washed and 0.1 ml of peroxidase substrate (Pierce) was added for 15 min. The color reaction was read at 405 nm.

For the next experiment, the system named is human neutrophils. Briefly: Binding of 125I[GMP-140] to human neutrophils. From the text:
This receptor is believed to be a glycoprotein containing sialic acid and other oligosaccharides that are recognized by the lectin domain of GMP-140. Using the assay described in example 1, and an assay in which ^125 I[GMP-140] binds specifically, saturably and reversibly to human neutrophils, as described by Moore and McEver, Clin.Res. 38, 364A (1990), certain critical structural features of the ligand (or, perhaps more accurately, "counter-receptor") for GMP-140 on human neutrophils have been defined.

Experiment [3] addresses T1, GMP-140. Briefly: Binding of stimulated platelets to neutrophils in the presence of Ca2+. It is filed as cell-based. Details: GMP-140 also mediates adhesion of neutrophils to stimulated platelets; endogenous in cells; host or cells: stimulated platelets.

Consider RKNNKTWTWVGTKKALTNE [54-72], for which the “% Bound (neutrophils bound to immobilized GMP-140 in the presence of GMP-140-derived peptide)” value at GMP-140 [1] (peptide 1.5 mM, cells bound with control C-terminal peptide 761-777 normalized to 100%) came to 15%. At GMP-140 [2] (mAb G1 2.5 micrograms/ml), the “% Binding of Biotinylated MAbs G1” value was 106%. For the same molecule, the “% Binding of Biotinylated MAbs G2” value on GMP-140 [2] (mAb G2 2.5 micrograms/ml) came to 125%. In addition, the “% Binding of Biotinylated MAbs G3” value on GMP-140 [2] (mAb G3 2.5 micrograms/ml) is 104%.

With “neuraminidase: neuraminidase purified from Vibrio cholera [reference compound]”, in the experiment with GMP-140 [1] (neutrophils treated with the enzyme), the “adhesion of neutrophils to immobilized GMP-140 after treatment of neutrophils (in words)” value is given as “abolished”. For the same molecule, the “binding of 125I[GMP-140] to human neutrophils (in words)” value with human neutrophils is “abolished”.

B1: GMP-140: granule membrane protein 140, isolated from human platelet lysates by immunoaffinity and ion-exchange chromatography (protein, UniProt P16109 42-830, looked up)
P-selectin: WTYHYSTKAYSWNISRKYCQNRYTDLVAIQNKNEIDYLNKVLPYYSSYYWIGIRKNNKTWTWVGTKKALTNEAENWADNEPNNKRNNEDCVEIYIKSPSAPGKWNDEHCLKKKHALCYTASCQDMSCSKQGECLETIGNYTCSCYPGFYGPECEYVRECGELELPQHVLMNCSHPLGNFSFNSQCSFHCTDGYQVNGPSKLECLASGIWTNKPPQCLAAQCPPLKIPERGNMTCLHSAKAFQHQSSCSFSCEEGFALVGPEVVQCTASGVWTAPAPVCKAVQCQHLEAPSEGTMDCVHPLTAFAYGSSCKFECQPGYRVRGLDMLRCIDSGHWSAPLPTCEAISCEPLESPVHGSMDCSPSLRAFQYDTNCSFRCAEGFMLRGADIVRCDNLGQWTAPAPVCQALQCQDLPVPNEARVNCSHPFGAFRYQSVCSFTCNEGLLLVGASVLQCLATGNWNSVPPECQAIPCTPLLSPQNGTMTCVQPLGSSSYKSTCQFICDEGYSLSGPERLDCTRSGRWTDSPPMCEAIKCPELFAPEQGSLDCSDTRGEFNVGSTCHFSCDNGFKLEGPNNVECTTSGRWSATPPTCKGIASLPTPGVQCPALTTPGQGTMYCRHHPGTFGFNTTCYFGCNAGFTLIGDSTLSCRPSGQWTAVTPACRAVKCSELHVNKPIAMNCSNLWGNFSYGSICSFHCLEGQLLNGSAQTACQENGHWSTTVPTCQAGPLTIQEALTYFGGAVASTIGLIMGGTLLALLRKRFRQKDDGKCPLNPHSHLGTYGVFTNAAFDPSP
In the case of B1, the “binding of platelets to neutrophils” value with GMP-140 [3] is listed as “inhibited”.
